Test results taken from patent US4175081A, “5-Substituted thiadiazole ureas” (priority 1977, dated 1979).

Experiments:
[1] = test system: Crabgrass (CG); assay: Pre-emergence herbicide test; format: in vivo, Digitaria sanquinalis; details: Digitaria sanguinalis, pre-emergence, 336 h; 8 lb/acre; two weeks after treatment
Summary of the method: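 Crabgrass (Digitaria sanquinalis) was surface seeded in 3' plastic pots of potting soil, covered with screened soil, and watered by sub-irrigation in greenhouse trays. Pots were seeded one day before spraying in a hood with a moving belt and fixed nozzle. Plants stayed in the greenhouse on sub-irrigation, and pre-emergence control was rated visually two weeks after treatment.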

[2] = test system: Yellow foxtail grass (YF); assay: Pre-emergence herbicide test; format: in vivo, Setaria glauca; details: Setaria, 336 h, 8 lb/acre, two weeks after treatment
Protocol: Yellow foxtail grass (YF)--Setaria glauca
All crop and weed species were planted individually in 3' plastic pots containing potting soil. Four seeds each of corn, cotton, and snapbeans were seeded to a depth equal to the diameter of the seed. All other species were surface seeded and sprinkled with screened soil in an amount sufficient to cover the seed. Immediately after planting, all pots were watered by sub-irrigation in greenhouse trays. Pots for the pre-emergence phase were seeded one day before treatment.
Compounds were tested at rates of application equivalent to 8 lbs. of actual compound per acre in a spray volume of 38 gallons per acre. Spray hood constants required to deliver the above volume are as follows:
Formulations for spray applications were prepared in 50 ml volumes with the following three components:
Formulations for the 4 lbs/acre rate were prepared by adjusting the amount of active ingredient accordingly.
Spray applications were made in a hood containing a removable belt and fixed spray nozzle. For passage through the spray hood, one pot of each specie (pre-emergence phase) was placed on the rear half of the flat. Treatments were removed to the greenhouse after spraying. Watering during the observation period was done only by sub-irrigation.
Two weeks after treatment, pre- and post-emergence injury or control was visually rated, and the results were as shown in the following tables. Pre-emergence data are provided in TABLE III and post-emergence data are provided in TABLE IV, for compounds having the formula illustrated in TABLE I. Correspondingly, pre-emergence and post-emergence data, respectively, are set forth in TABLES V AND VI, for compounds having the formula illustrated in TABLE II.

[3] = test system: Johnson grass (JG); assay: Pre-emergence herbicide test; format: in vivo, Sorgum helepense; details: Sorghum halepense, 336 h, 8 lb/acre, two weeks after treatment
Summary of the method: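 Pots seeded one day before spraying; compound applied pre-emergence at 8 lbs/acre (or 4 lbs/acre) in 38 gallons/acre spray volume. Sub-irrigated in greenhouse; injury/control rated visually two weeks after treatment.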

[4] = test system: Barnyard grass (BG); assay: Pre-emergence herbicide test; format: in vivo; details: Echinochloa crus-galli, 336 h, 8 lb/acre, two weeks after treatment
Summary of the method: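 Barnyard grass surface-seeded in potting soil and sprayed pre-emergence one day after seeding, at 8 or 4 lb compound/acre in 38 gal/acre spray volume. Pots kept in greenhouse with sub-irrigation only; injury or control rated visually two weeks after treatment.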

[5] = test system: Amaranth pigweed (PW); assay: Pre-emergence herbicide test; format: in vivo, Amaranthus retroflexus; details: 336 h, 8 lb/acre, two weeks after treatment
Summary of the method: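 Pigweed was surface-seeded in potted soil one day before spraying at 8 lbs compound per acre, or 4 lbs/acre, in 38 gallons per acre. Pots were kept in the greenhouse with sub-irrigation only; injury or control was rated visually two weeks after treatment.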

[6] = test system: Turnip (TP); assay: Pre-emergence herbicide test; format: in vivo, Brassica sp.; details: Brassica rapa, pre-emergence, 336 h; 8 lb/acre; two weeks after treatment
Summary of the method: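 Turnip (Brassica sp.) seeds were surface sown in 3' plastic pots of potting soil, covered with a thin layer of screened soil, and sub-irrigated in greenhouse trays. Pots were seeded one day ahead of treatment, sprayed pre-emergence under a hood with a fixed nozzle and moving belt, then kept in the greenhouse.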

[7] = test system: Cotton (CT); assay: Pre-emergence herbicide test; format: in vivo, Gossypium hirsutum var. DPL smooth leaf; details: Gossypium hirsutum, 336 h, 8 lb/acre, two weeks after treatment
Summary of the method: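 Crop and weed species seeded one day before treatment, then sprayed pre-emergence at 8 lbs actual compound per acre (also 4 lbs/acre formulations) in 38 gallons per acre. Pots kept in greenhouse with sub-irrigation only; injury or control visually rated two weeks after treatment.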

[8] = test system: Corn (CN); assay: Pre-emergence herbicide test; format: in vivo; details: Zea mays, 336 h, 8 lb/acre, two weeks after treatment
Summary of the method: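 Four corn seeds per pot, sown at seed-diameter depth one day before spraying, got soil surface treatment at 8 lbs/acre (4 lbs/acre formulations also prepared) in 38 gallons/acre. Pots were greenhouse-held with sub-irrigation only. Injury or control was scored visually two weeks after treatment.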

[9] = test system: Bean (BN); assay: Pre-emergence herbicide test; format: in vivo, Phaseolus vulgaris var. Black Valentine; details: Phaseolus vulgaris, 336 h, 8 lb/acre, two weeks after treatment
Summary of the method: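 Black Valentine bean was seeded in potting soil one day before spraying. Compound was applied pre-emergence at 8 lbs/acre (also 4 lbs/acre) in 38 gallons per acre. Plants were sub-irrigated and injury or control was rated visually after two weeks.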

[10] = test system: Crabgrass (CG); assay: Post-emergence herbicide test; format: in vivo, Digitaria sanquinalis; details: Digitaria sanguinalis, post-emergence, 336 h; 8 lb/acre; two weeks after treatment
Summary of the method: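 Crabgrass (Digitaria sanquinalis) was surface seeded individually in 3' plastic pots of potting soil, covered with screened soil, and watered by sub-irrigation in greenhouse trays. Planting was staggered so seedlings reached the target stage together. Post-emergence sprays were applied in a hood with a removable belt and fixed nozzle, and control was visually rated two weeks after treatment.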

[11] = test system: Yellow foxtail grass (YF); assay: Post-emergence herbicide test; format: in vivo, Setaria glauca; details: Setaria, 336 h, 8 lb/acre, two weeks after treatment
Summary of the method: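 Potted seedlings grown in greenhouse, planting staggered to reach the target stage together, then sprayed post-emergence at 8 lbs actual compound/acre in 38 gallons/acre (4 lbs/acre formulations also prepared). Sub-irrigated afterwards. Injury or control rated visually two weeks after treatment.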

[12] = test system: Johnson grass (JG); assay: Post-emergence herbicide test; format: in vivo, Sorgum helepense; details: Sorghum halepense, 336 h, 8 lb/acre, two weeks after treatment
Summary of the method: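 Greenhouse pot-grown seedlings sprayed post-emergence at 8 lbs compound per acre (some at 4 lbs/acre) in 38 gallons per acre spray volume. Sub-irrigated thereafter. Injury/control rated visually two weeks after treatment.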

[13] = test system: Barnyard grass (BG); assay: Post-emergence herbicide test; format: in vivo; details: Echinochloa crus-galli, 336 h, 8 lb/acre, two weeks after treatment
Summary of the method: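 Greenhouse pot-grown barnyard grass seedlings sprayed post-emergence at 8 lbs active compound per acre (some at 4 lbs/acre) in 38 gallons per acre, then sub-irrigated. Injury or control rated visually two weeks after treatment.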

[14] = test system: Amaranth pigweed (PW); assay: Post-emergence herbicide test; format: in vivo, Amaranthus retroflexus; details: 336 h, 8 lb/acre, two weeks after treatment
Summary of the method: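 Pot-grown pigweed was sprayed post-emergence at the 1–2 true-leaf stage with compound at rates equivalent to 8 lbs per acre (formulations also prepared for 4 lbs/acre) in 38 gallons per acre, using a hood with fixed nozzle. Plants were sub-irrigated in the greenhouse, and injury or control was rated visually two weeks after treatment.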

[15] = test system: Turnip (TP); assay: Post-emergence herbicide test; format: in vivo, Brassica sp.; details: Brassica rapa, post-emergence, 336 h; 8 lb/acre; two weeks after treatment
Summary of the method: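 A greenhouse post-emergence herbicide test on turnip. Seeds were sown on the surface of potting soil in 3' plastic pots, lightly covered with screened soil and watered from below. Planting was timed so seedlings had 1 or 2 true leaves above the cotyledons at spraying, done in a hood with a fixed nozzle. Control or injury was scored by eye after two weeks.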

[16] = test system: Cotton (CT); assay: Post-emergence herbicide test; format: in vivo, Gossypium hirsutum var. DPL smooth leaf; details: Gossypium hirsutum, post-emergence, 336 h; 8 lb/acre; two weeks after treatment
Summary of the method: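 Cotton (Gossypium hirsutum var. DPL smooth leaf) was grown in 3' plastic pots of potting soil, four seeds per pot, planted at a depth equal to the seed diameter and watered by sub-irrigation. At the stage of expanded cotyledons with the first true leaf 1' long, plants were sprayed post-emergence in a hood with a fixed nozzle over a moving belt. Percent control was rated visually two weeks later.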

[17] = test system: Corn (CN); assay: Post-emergence herbicide test; format: in vivo; details: Zea mays, 336 h, 8 lb/acre, two weeks after treatment
Summary of the method: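 Greenhouse seedlings grown in potting soil and sprayed post-emergence at 8 lbs compound/acre (formulations also made for 4 lbs/acre) in 38 gallons/acre spray volume. Watering by sub-irrigation only. Injury or control rated visually two weeks after treatment.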

[18] = test system: Bean (BN); assay: Post-emergence herbicide test; format: in vivo, Phaseolus vulgaris var. Black Valentine; details: Phaseolus vulgaris, post-emergence, 336 h; 8 lb/acre; two weeks after treatment
Summary of the method: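 Snapbean (Phaseolus vulgaris var. Black Valentine) was tested post-emergence. Four seeds were sown in 3' plastic pots of potting soil at a depth equal to the seed diameter, then sub-irrigated in greenhouse trays. Planting dates were staggered so plants were sprayed once primary leaves had expanded, with the growing point at the primary leaf nodes.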

| SMILES | pest or weed control at 8966.8 g/ha [1] [%] | pest or weed control at 8966.8 g/ha [2] [%] | pest or weed control at 8966.8 g/ha [3] [%] | pest or weed control at 8966.8 g/ha [4] [%] | pest or weed control at 8966.8 g/ha [5] [%] | pest or weed control at 8966.8 g/ha [6] [%] | pest or weed control at 8966.8 g/ha [7] [%] | pest or weed control at 8966.8 g/ha [8] [%] | pest or weed control at 8966.8 g/ha [9] [%] | pest or weed control at 8966.8 g/ha [10] [%] | pest or weed control at 8966.8 g/ha [11] [%] | pest or weed control at 8966.8 g/ha [12] [%] | pest or weed control at 8966.8 g/ha [13] [%] | pest or weed control at 8966.8 g/ha [14] [%] | pest or weed control at 8966.8 g/ha [15] [%] | pest or weed control at 8966.8 g/ha [16] [%] | pest or weed control at 8966.8 g/ha [17] [%] | pest or weed control at 8966.8 g/ha [18] [%] |
| --- | --- | --- | --- | --- | --- | --- | --- | --- | --- | --- | --- | --- | --- | --- | --- | --- | --- | --- |
| O=C(Nc1ccccc1)Nc1nnc(C(F)(F)F)s1 [Example 14] | 10 | 10 | 20 | 10 | 90 | 10 | 50 | 50 | 100 | 10 | 10 | 20 | 10 | 90 | 10 | 50 | 50 | 100 |
| CCNC(=O)Nc1nnc(SC)s1 [Example 28] | 40 | 30 | 20 | 50 | 30 | 0 | 40 | 10 | 80 | 20 | 20 | 20 | 20 | 30 | 50 | 70 | 20 | 50 |
| CCCNC(=O)Nc1nnc(SC)s1 [Example 29] | 20 | 10 | 10 | 10 | 10 | 0 | 30 | 30 | 80 | 30 | 20 | 20 | 20 | 40 | 40 | 60 | 20 | 100 |
| C=CCNC(=O)Nc1nnc(SC)s1 [Example 31] | 70 | 70 | 20 | 30 | 20 | 30 | 30 | 10 | 80 | 30 | 30 | 30 | 20 | 90 | 50 | 100 | 20 | 100 |
| CCSc1nnc(NC(=O)NC)s1 [Example 32] | 90 | 90 | 70 | 90 | 100 | 90 | 50 | 70 | 80 | 100 | 90 | 90 | 100 | 100 | 90 | 100 | 60 | 100 |
